In test [1] the target is SIK3 (Homo sapiens (Human), UniProt Q9Y2K2). As to the kind of experiment: Pan SIK MS IC50 enzyme assay (SIK3). It is filed as biochemical. Conditions: 1 mM ATP, substrate peptide AQT0508, LCMS/MS detection. As for the experimental part: (§1) Enzyme Assay: Pan SIK MS IC50 Assay
(§2) Salt Induced Kinase (SIK) activity is determined by measuring the effect of a test agent on the activity of the appropriate SIK enzyme to phosphorylate its corresponding substrate. […] The phosphorylated substrate product resulting from the kinase reaction is detected by LCMS/MS, and the area under the peak curve correlates with kinase activity. […] The plates are spun at 1000 rpm for 30 seconds to ensure compounds are at the bottom of the well before removing foil covers. 0.15 μL HPE (assay std) and ZPE (DMSO) are added to the ARP using an HP D300 dispenser. Plates are spun again at 1000 rpm for 30 seconds. […] Plates are spun at 1000 rpm for 30 seconds. Plates are then sealed and incubated at RT for 10 minutes. Following incubation, 5 μL of 5× peptide reagent is added with a Multidrop Combi and designated small volume cassette to initiate the kinase reaction. Plates are spun at 1000 rpm for 30 seconds. Plates are then sealed and incubated at RT for 90 minutes. The assay is stopped by the addition of 5 μl of 120 mM EDTA added with a Multidrop Combi and designated small volume cassette (20 mM final concentration). Plates are spun at 1000 rpm for 30 seconds. 10 μl of the final reaction mix from each of the three individual enzyme plates are transferred by a Platemate Plus to the same corresponding 96 well deepwell plate containing 70 μl Water/Methanol (85/15%) for multiplex MS detection ([…]). Using Activity Base (ABase), an idbs data analysis software tool, the reported area ratio unit data is associated to compound, batch and dose information, the data is evaluated for quality, and the percent inhibition of each well is calculated. The data from each Max effect/HPE and Min effect/ZPE control wells are assessed, and outliers are excluded from all further calculations. The mean and standard deviation of the HPE and ZPE are then calculated for each plate, along with the Z Prime. The compound data is converted into % effect, using the average ZPE and HPE controls as 0% and 100% activity, respectively.

The target of test [2] is SIK1 (Homo sapiens (Human), UniProt P57059). As to the kind of experiment: Pan SIK MS IC50 enzyme assay (SIK1). The class given is biochemical. Conditions: 1 mM ATP, substrate peptide AQT0868, LCMS/MS detection. The protocol: as §1, §2
Sequence of SIK1 (P57059 whole entry, species assumed): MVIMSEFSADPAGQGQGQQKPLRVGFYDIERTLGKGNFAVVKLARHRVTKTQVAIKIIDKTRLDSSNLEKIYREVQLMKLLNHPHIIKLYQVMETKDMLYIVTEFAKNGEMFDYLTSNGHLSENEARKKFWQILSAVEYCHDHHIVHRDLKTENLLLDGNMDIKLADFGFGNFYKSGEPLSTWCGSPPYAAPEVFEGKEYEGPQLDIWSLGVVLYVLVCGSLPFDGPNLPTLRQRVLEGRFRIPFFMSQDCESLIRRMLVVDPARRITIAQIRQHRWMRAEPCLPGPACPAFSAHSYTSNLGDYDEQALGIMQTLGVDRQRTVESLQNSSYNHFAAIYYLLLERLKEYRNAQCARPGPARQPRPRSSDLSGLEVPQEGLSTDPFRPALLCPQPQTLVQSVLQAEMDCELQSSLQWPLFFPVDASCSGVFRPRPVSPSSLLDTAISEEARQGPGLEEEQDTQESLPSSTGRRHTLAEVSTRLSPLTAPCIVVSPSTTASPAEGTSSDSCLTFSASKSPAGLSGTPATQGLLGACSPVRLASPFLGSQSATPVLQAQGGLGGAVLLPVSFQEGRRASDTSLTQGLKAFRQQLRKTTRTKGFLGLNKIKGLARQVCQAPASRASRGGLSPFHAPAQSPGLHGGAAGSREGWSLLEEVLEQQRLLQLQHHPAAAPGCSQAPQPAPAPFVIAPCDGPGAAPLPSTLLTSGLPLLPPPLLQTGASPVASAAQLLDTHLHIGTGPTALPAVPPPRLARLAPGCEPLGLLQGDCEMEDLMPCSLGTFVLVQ
The test system of test [3] is IL10 release from human monocyte derived macrophages stimulated with LPS. As to the kind of experiment: SIK macrophage cytokine assay, increase of IL10 release. It is filed as cell-based. Conditions: 1 ng/mL LPS, 4 hours, HTRF. As for the experimental part: (§3) Cytokine Assays: SIK Macrophage Assay Cytokine activity is determined by measuring the effect of a test agent on the inhibitory release of the cytokine TNFα and the increasing release of the cytokine IL10 from human monocyte derived macrophages (human macrophages) stimulated with lipopolysaccharide (LPS). At the time of assay, human macrophages (CGPS group Pfizer Groton, CT) are removed from cryopreservation, thawed quickly at 37° C., diluted in thaw medium (OptiMEM—Gibco medium, 10% heat inactivated fetal bovine serum (HIFBS)), and then centrifuged at 200×g for 10 minutes. […] After ˜60 minutes in an incubator at 37° C. in a humidified environment in 5% carbon dioxide the cells are stimulated by the addition of 5 μL of LPS (10 ng/mL; Sigma) and the assay plate is returned to an incubator at 37° C. in a humidified environment in 5% carbon dioxide for 4 hours. […] The final concentration of DMSO in the assay is approximately 0.1%. After 4 hours, the assay plate is removed from the incubator and centrifuged at 1500 rpm for 10 minutes. A portion of the resulting cell supernatant is then used to determine the amount of IL-10 and TNFα in each well. Cytokine measurements are made using human IL-10 and TNFα HTRF assay kits (Perkin Elmer) following the manufacturer's assay protocol.

The test system of test [4] is TNFα release from human monocyte derived macrophages stimulated with LPS. In words: SIK macrophage cytokine assay, inhibition of TNFα release. The class given is cell-based. Conditions: 1 ng/mL LPS, 4 hours, HTRF, read-out: TNFa IC50. As for the experimental part: as §3
For orientation: Time-resolved FRET reads energy transfer from a long-lived donor to a nearby acceptor.

The target in test [5] is SIK2 (Homo sapiens (Human), UniProt Q9H0K1). In words: Pan SIK MS IC50 enzyme assay (SIK2). It is filed as biochemical. To be noted: 1 mM ATP, substrate peptide AQT0252, LCMS/MS detection. As for the experimental part:
as §1, §2

The values that follow come from patent US20240124450A1, “Novel SIK Inhibitors” (Pfizer Inc., priority 2022, published 2024).

Where two headings read alike, the source gives them in different places.

Sequence of SIK3 (Q9Y2K2 whole entry, species assumed): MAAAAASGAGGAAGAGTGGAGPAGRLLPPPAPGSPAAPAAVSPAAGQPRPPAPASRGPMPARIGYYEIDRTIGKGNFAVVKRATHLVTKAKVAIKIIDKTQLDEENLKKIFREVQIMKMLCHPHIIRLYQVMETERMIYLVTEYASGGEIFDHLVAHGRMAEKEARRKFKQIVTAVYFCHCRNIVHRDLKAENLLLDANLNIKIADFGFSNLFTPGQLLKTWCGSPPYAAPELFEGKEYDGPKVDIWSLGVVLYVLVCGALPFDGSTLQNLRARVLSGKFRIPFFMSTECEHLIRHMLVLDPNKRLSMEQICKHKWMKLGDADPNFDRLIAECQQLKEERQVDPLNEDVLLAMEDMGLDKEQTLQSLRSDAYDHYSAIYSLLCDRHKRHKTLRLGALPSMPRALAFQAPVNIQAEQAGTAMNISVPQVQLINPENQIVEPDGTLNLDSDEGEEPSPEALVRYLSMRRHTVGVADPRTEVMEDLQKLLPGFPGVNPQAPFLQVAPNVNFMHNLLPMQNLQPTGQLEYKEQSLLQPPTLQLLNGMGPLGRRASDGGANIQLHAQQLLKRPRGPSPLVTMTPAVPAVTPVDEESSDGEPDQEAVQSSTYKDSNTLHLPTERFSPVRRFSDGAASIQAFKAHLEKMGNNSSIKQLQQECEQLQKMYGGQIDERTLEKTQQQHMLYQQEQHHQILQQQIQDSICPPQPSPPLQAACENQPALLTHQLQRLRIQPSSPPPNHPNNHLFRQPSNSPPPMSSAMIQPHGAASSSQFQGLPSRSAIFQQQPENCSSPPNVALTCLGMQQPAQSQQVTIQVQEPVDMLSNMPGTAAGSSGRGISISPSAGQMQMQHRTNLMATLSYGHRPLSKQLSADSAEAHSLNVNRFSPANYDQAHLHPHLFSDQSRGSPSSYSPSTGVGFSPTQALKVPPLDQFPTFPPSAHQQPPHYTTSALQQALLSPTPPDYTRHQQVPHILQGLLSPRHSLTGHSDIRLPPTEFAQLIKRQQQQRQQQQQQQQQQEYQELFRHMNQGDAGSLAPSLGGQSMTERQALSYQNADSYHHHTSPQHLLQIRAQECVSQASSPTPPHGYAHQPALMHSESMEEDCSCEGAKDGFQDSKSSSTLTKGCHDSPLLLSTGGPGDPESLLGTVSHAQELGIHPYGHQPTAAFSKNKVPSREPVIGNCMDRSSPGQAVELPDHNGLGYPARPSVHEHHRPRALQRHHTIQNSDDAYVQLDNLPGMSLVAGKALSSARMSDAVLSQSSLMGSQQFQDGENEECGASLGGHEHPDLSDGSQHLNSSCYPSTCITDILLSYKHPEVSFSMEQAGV
Sequence of SIK2 (Q9H0K1 whole entry, species assumed): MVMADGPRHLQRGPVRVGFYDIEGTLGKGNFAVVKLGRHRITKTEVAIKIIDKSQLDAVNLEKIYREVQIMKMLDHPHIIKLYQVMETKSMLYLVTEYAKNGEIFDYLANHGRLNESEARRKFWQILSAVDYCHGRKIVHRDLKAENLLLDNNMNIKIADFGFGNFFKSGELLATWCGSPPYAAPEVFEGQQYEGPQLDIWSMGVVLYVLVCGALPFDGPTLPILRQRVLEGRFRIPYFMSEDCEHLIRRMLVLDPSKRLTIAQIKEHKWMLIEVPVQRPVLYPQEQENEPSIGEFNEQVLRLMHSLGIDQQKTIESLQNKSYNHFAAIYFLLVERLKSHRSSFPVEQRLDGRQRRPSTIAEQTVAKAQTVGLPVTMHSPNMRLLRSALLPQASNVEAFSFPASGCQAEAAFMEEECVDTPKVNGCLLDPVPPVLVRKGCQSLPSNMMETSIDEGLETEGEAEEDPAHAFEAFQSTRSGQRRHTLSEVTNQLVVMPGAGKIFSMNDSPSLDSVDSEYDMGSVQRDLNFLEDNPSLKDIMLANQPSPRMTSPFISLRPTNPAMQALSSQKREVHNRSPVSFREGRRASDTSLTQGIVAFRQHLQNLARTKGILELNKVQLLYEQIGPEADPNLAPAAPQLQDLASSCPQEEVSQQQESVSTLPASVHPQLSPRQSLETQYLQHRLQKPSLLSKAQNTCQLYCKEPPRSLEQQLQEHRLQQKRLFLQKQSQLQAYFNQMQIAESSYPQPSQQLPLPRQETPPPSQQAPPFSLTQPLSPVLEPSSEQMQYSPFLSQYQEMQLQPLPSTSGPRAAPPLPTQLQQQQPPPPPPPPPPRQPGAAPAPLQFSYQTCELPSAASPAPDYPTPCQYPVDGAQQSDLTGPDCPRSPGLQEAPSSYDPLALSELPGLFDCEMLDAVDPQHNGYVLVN

What is called IC50 is the midpoint of a concentration-inhibition curve. In general, EC50 refers to the concentration at which the effect is half-maximal. A high value points to weaker potency. Consider `CSc1cc(-c2cnc3cccc(C#N)n23)cc(OCC2(N)CCSC2)c1C#N` (racemic) [Example 27, (R)-3-(3-((3-aminotetrahydrothiophen-3-yl)methoxy)-4-cyano-5-(methylthio)phenyl)imidazo[1,2-a]pyridine-5-carbonitrile and (6)-3-(3-(((3-aminotetrahydrothiophen-3-yl)methoxy)-4-cyano-5-(methylthio)phenyl)imidazo[1,2-a]pyridine-5-carbonitrile], for which the IC50 in test [1] is 5.1 nM; in test [2], 3.3 nM; in test [4] (Macrophage), 25.8 nM; in test [5], 2.5 nM. Further, in test [3] (Macrophage), the midpoint of the response, the EC50, lay at 142 nM.

As to `CSc1cc(-c2cnc3ccccn23)cc(OC[C@@]2(N)CCC[C@@H](C(F)(F)F)C2)c1C#N` (racemic) [Example 33A, 2-(((1S,3S)-1-Amino-3-(trifluoromethyl)cyclohexyl)methoxy)-4-(imidazo[1,2-a]pyridin-3-yl)-6-(methylthio)benzonitrile and 2-(((1R,3R)-1-amino-3-(trifluoromethyl)cyclohexyl)methoxy)-4-(imidazo[1,2-a]pyridin-3-yl)-6-(methylthio)benzonitrile], the IC50 in test [1] came to 2.2 nM; in test [2], 0.6 nM; in test [4] (Macrophage) it was 13.9 nM; in test [5] it was 1 nM. Also, in test [3] (Macrophage), the midpoint of the response, the EC50, lay at 34 nM.

Consider `COc1cccc2ncc(-c3cc(OCC4(N)CCCC4)c(C#N)c(SC)c3)n12` [Example 1, 2-((1-Aminocyclopentyl)methoxy)-4-(5-methoxyimidazo[1,2-a]pyridin-3-yl)-6-(methylthio)benzonitrile], for which the IC50 in test [1] stood at 7.5 nM; in test [2], 2.5 nM; in test [4] (Macrophage), 26.4 nM; in test [5], 2.2 nM. It took 109 nM to reach a half-maximal effect in test [3] (Macrophage) (EC50).

As to `CC[C@@H]1CCC[C@@]1(N)COc1cc(-c2cnc3cccc(OC)n23)cc(OC)c1C#N` [Example 2A, 2-(((1S,2R)-1-Amino-2-ethylcyclopentyl)methoxy)-6-methoxy-4-(5-methoxyimidazo[1,2-a]pyridin-3-yl)benzonitrile], the half-inhibitory concentration (IC50) in test [1] was determined as 2 nM; in test [2], 0.5 nM; in test [4] (Macrophage), 5.2 nM; in test [5], 0.6 nM. The compound also returned an EC50 in test [3] (Macrophage) of 21 nM.

On to `CC[C@H]1CCC[C@]1(N)COc1cc(-c2cnc3cccc(OC)n23)cc(OC)c1C#N` [Example 2B, 2-(((1R,2S)-1-Amino-2-ethylcyclopentyl)methoxy)-6-methoxy-4-(5-methoxyimidazo[1,2-a]pyridin-3-yl)benzonitrile], for which the IC50 stood at 71.3 nM in test [1], 12 nM in test [2], 271 nM in test [4] (Macrophage) and 11.1 nM in test [5]. Further, in test [3] (Macrophage), it took 570 nM to reach a half-maximal effect (EC50).

`CCC1CCC(N)(COc2cc(-c3cnc4cccc(OC)n34)cc(OC)c2C#N)C1` (stereo not drawn) [Example 3, 2-((1-Amino-3-ethylcyclopentyl)methoxy)-6-methoxy-4-(5-methoxyimidazo[1,2-a]pyridin-3-yl)benzonitrile]: the IC50 in test [1] is 4.7 nM; in test [2] it was 0.8 nM; in test [4] (Macrophage), 29.7 nM; in test [5], 2.1 nM. This compound showed an EC50 in test [3] (Macrophage) of 92 nM.

`CCC1CCCC1(N)COc1cc(-c2cnc3cccc(OC)n23)cc(SC)c1C#N` (stereo not drawn) [Example 8, 2-((1-Amino-2-ethylcyclopentyl)methoxy)-4-(5-methoxyimidazo[1,2-a]pyridin-3-yl)-6-(methylthio)benzonitrile]: the IC50 in test [1] stood at 3.3 nM; in test [2], 1.1 nM; in test [4] (Macrophage) it was 11.1 nM; in test [5], 1 nM. The compound further returned an EC50 in test [3] (Macrophage) of 23 nM.

As for `COc1cc(-c2cnc3cccc(OC)n23)cc(OCC2(N)CCCN(CC(F)(F)F)C2)c1C#N` (stereo not drawn) [Example 21A], the IC50 in test [1] was 4.4 nM; in test [2] it was 1 nM; in test [4], 19.6 nM; in test [5] it was 1.1 nM. The compound also yielded an EC50 in test [3] of 50 nM.

Regarding `COc1cccc2ncc(-c3cc(OCC4(N)CCCCC4)c(C#N)c(SC)c3)n12` [Example 29, 2-((1-Aminocyclohexyl)methoxy)-4-(5-methoxyimidazo[1,2-a]pyridin-3-yl)-6 (methylthio)benzonitrile], the IC50 in test [1] came out at 11.4 nM; in test [2], 2.4 nM; in test [4] (Macrophage) it was 29.1 nM; in test [5], 2.9 nM. Besides, in test [3] (Macrophage), the EC50 came to 75 nM.

Regarding `CSc1cc(-c2cnc3cccc(C#N)n23)cc(OCC2(N)CCCC2)c1C#N` [Example 36, 3-(3-((1-Aminocyclopentyl)methoxy)-4-cyano-5-(methylthio)phenyl)imidazo[1,2-a]pyridine-5-carbonitrile], the IC50 in test [1] is 2.1 nM; in test [2], 1.2 nM; in test [4] (Macrophage), 4.8 nM; in test [5], 0.8 nM. Further, the EC50 in test [3] (Macrophage) was 35 nM.

As to `CCOC(=O)c1cc(C#N)n2c(-c3cc(OCC4(N)CCCC4)c(C#N)c(SC)c3)cnc2c1` [Example 38, Ethyl 3-(3-((1-aminocyclopentyl)methoxy)-4-cyano-5-(methylthio)phenyl)-5-cyanoimidazo[1,2-a]pyridine-7-carboxylate], the IC50 stood at 1.8 nM in test [1], 1.5 nM in test [2], 20.1 nM in test [4] (Macrophage) and 1 nM in test [5]. In test [3] (Macrophage), this compound came in with an EC50 of 51 nM.

Regarding `COc1ccc2ncc(-c3cc(OCC4(N)CCCC4)c(C#N)c(SC)c3)n2c1C#N` [Example 39, 3-(3-((1-Aminocyclopentyl)methoxy)-4-cyano-5-(methylthio)phenyl)-6-methoxyimidazo[1,2-a]pyridine-5-carbonitrile], the IC50 in test [1] amounted to 1.1 nM; in test [2] it was 0.5 nM; in test [4] (Macrophage), 6 nM; in test [5], 1 nM. The EC50 in test [3] (Macrophage) was 25 nM.

Consider `CSc1cc(-c2cnc3ccc(C)c(C#N)n23)cc(OCC2(N)CCCC2)c1C#N` [Example 40, 3-(3-((1-Aminocyclopentyl)methoxy)-4-cyano-5-(methylthio)phenyl)-6-methylimidazo[1,2-a]pyridine-5-carbonitrile], for which the IC50 in test [1] was 1.6 nM; in test [2], 0.4 nM; in test [4] (Macrophage) it was 6.1 nM; in test [5], 0.6 nM. The compound further displayed an EC50 in test [3] (Macrophage) of 17 nM.

Turning to `CSc1cc(-c2cnc3cc(C)cc(C#N)n23)cc(OCC2(N)CCCC2)c1C#N` [Example 41, 3-(3-((1-Aminocyclopentyl)methoxy)-4-cyano-5-(methylthio)phenyl)-7-methylimidazo[1,2-a]pyridine-5-carbonitrile], the IC50 was 0.7 nM in test [1], 1.9 nM in test [2], 5.3 nM in test [4] (Macrophage) and 0.8 nM in test [5]. In test [3] (Macrophage), this compound returned a 50% effective concentration (EC50) of 54 nM.

As to `CSc1cc(-c2cnc3cc(Cl)cc(C#N)n23)cc(OCC2(N)CCCC2)c1C#N` [Example 42, 3-(3-((1-Aminocyclopentyl)methoxy)-4-cyano-5-(methylthio)phenyl)-7-chloroimidazo[1,2-a]pyridine-5-carbonitrile], the IC50 in test [1] was 2.2 nM; in test [2], 3 nM; in test [4] (Macrophage), 10.7 nM; in test [5] it was 0.9 nM. The same compound gave a concentration giving a half-maximal response (EC50) in test [3] (Macrophage) of 85 nM.
